*1 amine or outer side, *2 acyl side, *3 side chain or, on linkers, in order; H or OH if unused. Where a SMILES comes first, the peptide text is derived from it. [ ]: non-standard residue; d: D form. ξ: configuration not given here. MeBmt = C/C=C/C[C@@H](C)[C@@H](O)[C@H](NC)C(=O)O; X2 = C=CCOC(C)(C)C[C@@H](C(=O)[*:2])N(C)[*:1]; X1 = CCN(CC)CC[C@H](C(=O)[*:2])N(C)[*:1]; X3 = CN(C)CCC[C@H](C(=O)[*:2])N(C)[*:1]; dNMeDab(Me2) = CN[C@H](CCN(C)C)C(=O)O; NMeIle(3ξ) = CCC(C)[C@H](NC)C(=O)O; NMeL = CN[C@@H](CC(C)C)C(=O)O; NMeV = CN[C@H](C(=O)O)C(C)C; Abu = CC[C@H](N)C(=O)O

The test system of this assay is HCV replicon in cell line ET (luc-ubi-neo/ET), Huh7 human hepatoma cells. The experiment in a line: HCV subgenomic replicon assay (luciferase end point). It is filed as cell-based. To be noted: Hepatitis C virus, Huh-7, read-out: Antiviral activity: IC50 (μM). Here is the method:
The anti-HCV activity of cyclosporine derivatives were evaluated in the HCV subgenomic replicon assay. The assay use the cell line ET (luc-ubi-neo/ET), which is a Huh7 human hepatoma cell line harboring an HCV replicon with a stable luciferase (Luc) reporter. HCV RNA replication was assessed by quantifying HCV replicon-derived luciferase activity. The antiviral activity of cyclosporine analogs were evaluated after drug treatment, the EC 50 and EC 90 were determined in subsequent assessments by using the luciferase end point (Krieger, N., et al., 2001, J. Virol. 75, 4614-4624; Pietschmann, T., et al., 2002, J. Virol. 76, 4008-4021; each of which is incorporated herein by reference).
For orientation: Replicon systems follow genome replication, usually without infectious particles.
As a reminder, the IC50 is the concentration that inhibits the measured activity by half. Turning to `C/C=C/C[C@@H](C)[C@@H](O)[C@H]1C(=O)N[C@@H](CC)C(=O)N(C)[C@H](CCN(C)C)C(=O)N(C)[C@@H](CC(C)(C)O)C(=O)N[C@@H](C(C)C)C(=O)N(C)[C@@H](CC(C)C)C(=O)N[C@@H](C)C(=O)N[C@H](C)C(=O)N(C)[C@@H](CC(C)C)C(=O)N(C)[C@@H](CC(C)C)C(=O)N(C)[C@@H](C(C)C)C(=O)N1C` [Example 20, [(R)-2-(N,N-Dimethylamino)ethyl-Sar]-3-[(γ-hydroxy)-NMeLeu]-4-cyclosporin], the IC50 was less than 0.25 µM.
Regarding `C/C=C/C[C@@H](C)[C@@H](O)[C@H]1C(=O)N[C@@H](CC)C(=O)N(C)[C@H](CCN(C)C)C(=O)N(C)[C@@H](CC(C)(C)OC)C(=O)N[C@@H](C(C)C)C(=O)N(C)[C@@H](CC(C)C)C(=O)N[C@@H](C)C(=O)N[C@H](C)C(=O)N(C)[C@@H](CC(C)C)C(=O)N(C)[C@@H](CC(C)C)C(=O)N(C)[C@@H](C(C)C)C(=O)N1C` [Example 21, [(R)-2-(N,N-Dimethylamino)ethyl-Sar]-3-[(γ-methoxy)-NMeLeu]-4-cyclosporin], the IC50 was less than 0.25 µM.
As for `C=CCOC(C)(C)C[C@H]1C(=O)N[C@@H](C(C)C)C(=O)N(C)[C@@H](CC(C)C)C(=O)N[C@@H](C)C(=O)N[C@H](C)C(=O)N(C)[C@@H](CC(C)C)C(=O)N(C)[C@@H](CC(C)C)C(=O)N(C)[C@@H](C(C)C)C(=O)N(C)[C@@H]([C@H](O)[C@H](C)C/C=C/C)C(=O)N[C@@H](CC)C(=O)N(C)[C@H](CCN(C)C)C(=O)N1C` [Example 22, [(R)-2-(N,N-Dimethylamino)ethyl-Sar]-3-[(γ-allyloxy)-NMeLeu]-4-cyclosporin] (cyclo(A[dA][NMeL][NMeL][NMeV][MeBmt][Abu][dNMeDab(Me2)][X2]V[NMeL])), the IC50 is less than 0.25 µM.
In the case of `C/C=C/C[C@@H](C)[C@@H](O)[C@H]1C(=O)N[C@@H](CC)C(=O)N(C)[C@H](CCN(C)C)C(=O)N(C)[C@@H](C(C)CC)C(=O)N[C@@H](C(C)C)C(=O)N(C)[C@@H](CC(C)C)C(=O)N[C@@H](C)C(=O)N[C@H](C)C(=O)N(C)[C@@H](CC(C)C)C(=O)N(C)[C@@H](CC(C)C)C(=O)N(C)[C@@H](C(C)C)C(=O)N1C` (stereo partly drawn) [Example 24, [(R)-2-(N,N-Dimethylamino)ethyl-Sar]-3-[NMeIle]-4-cyclosporin] (cyclo(A[dA][NMeL][NMeL][NMeV][MeBmt][Abu][dNMeDab(Me2)][NMeIle(3ξ)]V[NMeL])) it was less than 0.25 µM; in that of `C/C=C/C[C@@H](C)[C@@H](O)[C@H]1C(=O)N[C@@H](CC)C(=O)N(C)[C@H](CCN(CC)CC)C(=O)N(C)[C@@H](CC(C)C)C(=O)N[C@@H](C(C)C)C(=O)N(C)[C@@H](CC(C)C)C(=O)N[C@@H](C)C(=O)N[C@H](C)C(=O)N(C)[C@@H](CC(C)C)C(=O)N(C)[C@@H](CC(C)C)C(=O)N(C)[C@@H](C(C)C)C(=O)N1C` [Example 25, [(R)-2-(N,N-Diethylamino)ethyl-Sar]-3-cyclosporin], less than 0.25 µM; in that of `C/C=C/C[C@@H](C)[C@@H](O)[C@H]1C(=O)N[C@@H](CC)C(=O)N(C)[C@H](CCN(CC)CC)C(=O)N(C)[C@@H](CC(C)(C)O)C(=O)N[C@@H](C(C)C)C(=O)N(C)[C@@H](CC(C)C)C(=O)N[C@@H](C)C(=O)N[C@H](C)C(=O)N(C)[C@@H](CC(C)C)C(=O)N(C)[C@@H](CC(C)C)C(=O)N(C)[C@@H](C(C)C)C(=O)N1C` [Example 26, [(R)-2-(N,N-Diethylamino)ethyl-Sar]-3-[(γ-hydroxy)-NMeLeu]-4-cyclosporin], less than 0.25 µM.
For the molecule `C/C=C/C[C@@H](C)[C@@H](O)[C@H]1C(=O)N[C@@H](CC)C(=O)N(C)[C@H](CCN(CC)CC)C(=O)N(C)[C@@H](CC(C)(C)OC)C(=O)N[C@@H](C(C)C)C(=O)N(C)[C@@H](CC(C)C)C(=O)N[C@@H](C)C(=O)N[C@H](C)C(=O)N(C)[C@@H](CC(C)C)C(=O)N(C)[C@@H](CC(C)C)C(=O)N(C)[C@@H](C(C)C)C(=O)N1C` [Example 27, [(R)-2-(N,N-Diethylamino)ethyl-Sar]-3-[(γ-methoxy)-NMeLeu]-4-cyclosporin], the IC50 is less than 0.25 µM.
In the case of `C=CCOC(C)(C)C[C@H]1C(=O)N[C@@H](C(C)C)C(=O)N(C)[C@@H](CC(C)C)C(=O)N[C@@H](C)C(=O)N[C@H](C)C(=O)N(C)[C@@H](CC(C)C)C(=O)N(C)[C@@H](CC(C)C)C(=O)N(C)[C@@H](C(C)C)C(=O)N(C)[C@@H]([C@H](O)[C@H](C)C/C=C/C)C(=O)N[C@@H](CC)C(=O)N(C)[C@H](CCN(CC)CC)C(=O)N1C` [Example 28, [(R)-2-(N,N-Diethylamino)ethyl-Sar]-3-[(γ-allyloxy)-NMeLeu]-4-cyclosporin] (cyclo(A[dA][NMeL][NMeL][NMeV][MeBmt][Abu][X1][X2]V[NMeL])) it was less than 0.25 µM; in that of `C/C=C/C[C@@H](C)[C@@H](O)[C@H]1C(=O)N[C@@H](CC)C(=O)N(C)[C@H](CCN(CC)CC)C(=O)N(C)[C@@H](C(C)C)C(=O)N[C@@H](C(C)C)C(=O)N(C)[C@@H](CC(C)C)C(=O)N[C@@H](C)C(=O)N[C@H](C)C(=O)N(C)[C@@H](CC(C)C)C(=O)N(C)[C@@H](CC(C)C)C(=O)N(C)[C@@H](C(C)C)C(=O)N1C` [Example 29, [(R)-2-(N,N-Diethylamino)ethyl-Sar]-3-[NMeVal]-4-cyclosporin] (cyclo(A[dA][NMeL][NMeL][NMeV][MeBmt][Abu][X1][NMeV]V[NMeL])), less than 0.25 µM.
For the molecule `C/C=C/C[C@@H](C)[C@@H](O)[C@H]1C(=O)N[C@@H](CC)C(=O)N(C)[C@H](CCN(CC)CC)C(=O)N(C)[C@@H](C(C)CC)C(=O)N[C@@H](C(C)C)C(=O)N(C)[C@@H](CC(C)C)C(=O)N[C@@H](C)C(=O)N[C@H](C)C(=O)N(C)[C@@H](CC(C)C)C(=O)N(C)[C@@H](CC(C)C)C(=O)N(C)[C@@H](C(C)C)C(=O)N1C` (stereo partly drawn) [Example 30, [(R)-2-(N,N-Diethylamino)ethyl-Sar]-3-[NMeIle]-4-cyclosporin] (cyclo(A[dA][NMeL][NMeL][NMeV][MeBmt][Abu][X1][NMeIle(3ξ)]V[NMeL])), the IC50 is less than 0.25 µM.
For the molecule `C/C=C/C[C@@H](C)[C@@H](O)[C@H]1C(=O)N[C@@H](CC)C(=O)N(C)[C@@H](CCN(C)C)C(=O)N(C)[C@@H](CC(C)(C)O)C(=O)N[C@@H](C(C)C)C(=O)N(C)[C@@H](CC(C)C)C(=O)N[C@@H](C)C(=O)N[C@H](C)C(=O)N(C)[C@@H](CC(C)C)C(=O)N(C)[C@@H](CC(C)C)C(=O)N(C)[C@@H](C(C)C)C(=O)N1C` [Example 32, [(S)-2-(N,N-Dimethylamino)ethyl-Sar]-3-[(γ-hydroxy)-NMeLeu]-4-cyclosporin], the IC50 is less than 5 µM.
Consider `C/C=C/C[C@@H](C)[C@@H](O)[C@H]1C(=O)N[C@@H](CC)C(=O)N(C)[C@@H](CCN(CC)CC)C(=O)N(C)[C@@H](CC(C)(C)O)C(=O)N[C@@H](C(C)C)C(=O)N(C)[C@@H](CC(C)C)C(=O)N[C@@H](C)C(=O)N[C@H](C)C(=O)N(C)[C@@H](CC(C)C)C(=O)N(C)[C@@H](CC(C)C)C(=O)N(C)[C@@H](C(C)C)C(=O)N1C` [Example 33, [(S)-2-(N,N-Diethylamino)ethyl-Sar]-3-[(γ-hydroxy)-NMeLeu]-4-Cyclosporin], for which the IC50 was less than 5 µM.
For `C/C=C/C[C@@H](C)[C@@H](O)[C@H]1C(=O)N[C@@H](CC)C(=O)N(C)[C@H](CCCN(C)C)C(=O)N(C)[C@@H](CC(C)(C)O)C(=O)N[C@@H](C(C)C)C(=O)N(C)[C@@H](CC(C)C)C(=O)N[C@@H](C)C(=O)N[C@H](C)C(=O)N(C)[C@@H](CC(C)C)C(=O)N(C)[C@@H](CC(C)C)C(=O)N(C)[C@@H](C(C)C)C(=O)N1C` [Example 37, [(R)-3-(N,N-Dimethylamino)propyl-Sar]-3-[(γ-hydroxy)-NMeLeu]-4-cyclosporin], the IC50 is less than 0.25 µM.
With `C/C=C/C[C@@H](C)[C@@H](O)[C@H]1C(=O)N[C@@H](CC)C(=O)N(C)[C@H](CCCN(C)C)C(=O)N(C)[C@@H](CC(C)(C)OC)C(=O)N[C@@H](C(C)C)C(=O)N(C)[C@@H](CC(C)C)C(=O)N[C@@H](C)C(=O)N[C@H](C)C(=O)N(C)[C@@H](CC(C)C)C(=O)N(C)[C@@H](CC(C)C)C(=O)N(C)[C@@H](C(C)C)C(=O)N1C` [Example 39, [(R)-3-(N,N-Dimethylamino)propyl-Sar]-3-[(γ-methoxy)-NMeLeu]-4-cyclosporin], the IC50 was less than 0.25 µM.
On to `C=CCOC(C)(C)C[C@H]1C(=O)N[C@@H](C(C)C)C(=O)N(C)[C@@H](CC(C)C)C(=O)N[C@@H](C)C(=O)N[C@H](C)C(=O)N(C)[C@@H](CC(C)C)C(=O)N(C)[C@@H](CC(C)C)C(=O)N(C)[C@@H](C(C)C)C(=O)N(C)[C@@H]([C@H](O)[C@H](C)C/C=C/C)C(=O)N[C@@H](CC)C(=O)N(C)[C@H](CCCN(C)C)C(=O)N1C` [Example 41, [(R)-3-(N,N-Dimethylamino)propyl-Sar]-3-[(γ-allyloxy)-NMeLeu]-4-cyclosporin] (cyclo(A[dA][NMeL][NMeL][NMeV][MeBmt][Abu][X3][X2]V[NMeL])), for which the IC50 is less than 0.25 µM.
Turning to `C/C=C/C[C@@H](C)[C@@H](O)[C@H]1C(=O)N[C@@H](CC)C(=O)N(C)[C@H](CCCN(C)C)C(=O)N(C)[C@@H](C(C)C)C(=O)N[C@@H](C(C)C)C(=O)N(C)[C@@H](CC(C)C)C(=O)N[C@@H](C)C(=O)N[C@H](C)C(=O)N(C)[C@@H](CC(C)C)C(=O)N(C)[C@@H](CC(C)C)C(=O)N(C)[C@@H](C(C)C)C(=O)N1C` [Example 43, [(R)-3-(N,N-Dimethylamino)propyl-Sar]-3-[NMeVal]-4-cyclosporin] (cyclo(A[dA][NMeL][NMeL][NMeV][MeBmt][Abu][X3][NMeV]V[NMeL])), the 50% inhibitory concentration (IC50) was less than 0.25 µM.

The values are drawn from patent US20150111815A1, “NOVEL CYCLOSPORIN DERIVATIVES FOR THE TREATMENT AND PREVENTION OF VIRAL INFECTIONS” (S&T Global Inc., priority 2011, published 2015).
